Experimental data reported in the NIST ThermoML archive (doi:10.1016/j.jct.2018.07.012).

Experiment: mn = molality of the nth substance listed, in mol/kg
Conditions: for surface tension liquid-gas: Maximal bubble pressure; for mass density: 100 kPa, Liquid, Vibrating tube method

CC(=O)[O-].CCCCC[n+]1ccn(C)c1 [1-methyl-3-pentylimidazolium acetate] + O
Conditions	mass density [kg/m3]	surface tension liquid-gas [mN/m]
288.15 K, m1 = 0.0113	1000.14	73.1
288.15 K, m1 = 0.0167	1000.28	73
288.15 K, m1 = 0.0278	1000.42	72.7
288.15 K, m1 = 0.0448	1000.64	72.2
288.15 K, m1 = 0.1117	1001.58	70.7
288.15 K, m1 = 0.1681	1002.3	69.3
288.15 K, m1 = 0.2233	1002.98	68
288.15 K, m1 = 0.2831	1003.85	66.7
288.15 K, m1 = 0.3358	1004.57	65.4
288.15 K, m1 = 0.3919	1005.36	64.1
288.15 K, m1 = 0.448	1006.14	62.9
288.15 K, m1 = 0.5032	1006.89	61.9
293.15 K, m1 = 0.0113	999.1	72.4
293.15 K, m1 = 0.0167	999.21	72.3
293.15 K, m1 = 0.0278	999.36	71.9
293.15 K, m1 = 0.0448	999.54	71.4
293.15 K, m1 = 0.1117	1000.47	69.9
293.15 K, m1 = 0.1681	1001.12	68.5
293.15 K, m1 = 0.2233	1001.89	67.4
293.15 K, m1 = 0.2831	1002.69	66
293.15 K, m1 = 0.3358	1003.38	64.7
293.15 K, m1 = 0.3919	1004.16	63.5
293.15 K, m1 = 0.448	1004.92	62.2
293.15 K, m1 = 0.5032	1005.68	61.2
298.15 K, m1 = 0.0113	997.82	71.6
298.15 K, m1 = 0.0167	997.9	71.4
298.15 K, m1 = 0.0278	998.08	71.1
298.15 K, m1 = 0.0448	998.25	70.7
298.15 K, m1 = 0.1117	999.05	69.3
298.15 K, m1 = 0.1681	999.71	67.9
298.15 K, m1 = 0.2233	1000.49	66.7
298.15 K, m1 = 0.2831	1001.32	65.4
298.15 K, m1 = 0.3358	1002.01	64.1
298.15 K, m1 = 0.3919	1002.76	62.9
298.15 K, m1 = 0.448	1003.5	61.7
298.15 K, m1 = 0.5032	1004.2	60.7
303.15 K, m1 = 0.0113	996.33	70.8
303.15 K, m1 = 0.0167	996.39	70.6
303.15 K, m1 = 0.0278	996.54	70.4
303.15 K, m1 = 0.0448	996.73	69.9
303.15 K, m1 = 0.1117	997.44	68.5
303.15 K, m1 = 0.1681	998.19	67
303.15 K, m1 = 0.2233	998.96	65.9
303.15 K, m1 = 0.2831	999.76	64.6
303.15 K, m1 = 0.3358	1000.44	63.3
303.15 K, m1 = 0.3919	1001.15	62.1
303.15 K, m1 = 0.448	1001.84	60.8
303.15 K, m1 = 0.5032	1002.51	59.8
308.15 K, m1 = 0.0113	994.67	69.9
308.15 K, m1 = 0.0167	994.74	69.8
308.15 K, m1 = 0.0278	994.85	69.5
308.15 K, m1 = 0.0448	995.01	69.1
308.15 K, m1 = 0.1117	995.82	67.6
308.15 K, m1 = 0.1681	996.5	66.2
308.15 K, m1 = 0.2233	997.24	65.1
308.15 K, m1 = 0.2831	998.03	63.9
308.15 K, m1 = 0.3358	998.7	62.7
308.15 K, m1 = 0.3919	999.4	61.4
308.15 K, m1 = 0.448	1000.08	60.2
308.15 K, m1 = 0.5032	1000.73	59.2
313.15 K, m1 = 0.0113	992.81	69.1
313.15 K, m1 = 0.0167	992.88	69
313.15 K, m1 = 0.0278	992.97	68.7
313.15 K, m1 = 0.0448	993.11	68.2
313.15 K, m1 = 0.1117	993.98	66.8
313.15 K, m1 = 0.1681	994.62	65.5
313.15 K, m1 = 0.2233	995.34	64.4
313.15 K, m1 = 0.2831	996.08	63.2
313.15 K, m1 = 0.3358	996.74	61.9
313.15 K, m1 = 0.3919	997.43	60.7
313.15 K, m1 = 0.448	998.1	59.5
313.15 K, m1 = 0.5032	998.74	58.6
318.15 K, m1 = 0.0113	990.79	68.3
318.15 K, m1 = 0.0167	990.87	68.2
318.15 K, m1 = 0.0278	990.95	67.9
318.15 K, m1 = 0.0448	991.1	67.5
318.15 K, m1 = 0.1117	991.99	66.1
318.15 K, m1 = 0.1681	992.61	64.8
318.15 K, m1 = 0.2233	993.28	63.6
318.15 K, m1 = 0.2831	994.03	62.3
318.15 K, m1 = 0.3358	994.67	61.1
318.15 K, m1 = 0.3919	995.33	60
318.15 K, m1 = 0.448	995.97	58.9
318.15 K, m1 = 0.5032	996.58	57.9

CC(=O)[O-].CCCn1cc[n+](C)c1 [1-propyl-3-methylimidazolium acetate] + O
Conditions	mass density [kg/m3]	surface tension liquid-gas [mN/m]
288.15 K, m1 = 0.0113	1000.22	73.4
288.15 K, m1 = 0.0172	1000.35	73.2
288.15 K, m1 = 0.0279	1000.55	72.8
288.15 K, m1 = 0.0446	1000.78	72.5
288.15 K, m1 = 0.1119	1001.76	71
288.15 K, m1 = 0.1673	1002.56	69.8
288.15 K, m1 = 0.2244	1003.49	68.6
288.15 K, m1 = 0.2808	1004.43	67.4
288.15 K, m1 = 0.3352	1005.37	66.2
288.15 K, m1 = 0.3925	1006.31	65.1
288.15 K, m1 = 0.448	1007.25	64
288.15 K, m1 = 0.5037	1007.98	63
293.15 K, m1 = 0.0113	999.22	72.6
293.15 K, m1 = 0.0172	999.35	72.5
293.15 K, m1 = 0.0279	999.53	72.1
293.15 K, m1 = 0.0446	999.76	71.8
293.15 K, m1 = 0.1119	1000.68	70.5
293.15 K, m1 = 0.1673	1001.46	69
293.15 K, m1 = 0.2244	1002.37	67.8
293.15 K, m1 = 0.2808	1003.28	66.7
293.15 K, m1 = 0.3352	1004.16	65.5
293.15 K, m1 = 0.3925	1005.08	64.4
293.15 K, m1 = 0.448	1005.89	63.3
293.15 K, m1 = 0.5037	1006.64	62.4
298.15 K, m1 = 0.0113	997.99	71.8
298.15 K, m1 = 0.0172	998.1	71.6
298.15 K, m1 = 0.0279	998.25	71.3
298.15 K, m1 = 0.0446	998.46	70.9
298.15 K, m1 = 0.1119	999.35	69.6
298.15 K, m1 = 0.1673	1000.14	68.4
298.15 K, m1 = 0.2244	1001.01	67
298.15 K, m1 = 0.2808	1001.86	66
298.15 K, m1 = 0.3352	1002.67	64.8
298.15 K, m1 = 0.3925	1003.62	63.7
298.15 K, m1 = 0.448	1004.43	62.6
298.15 K, m1 = 0.5037	1005.19	61.6
303.15 K, m1 = 0.0113	996.54	71
303.15 K, m1 = 0.0172	996.62	70.8
303.15 K, m1 = 0.0279	996.78	70.5
303.15 K, m1 = 0.0446	996.99	70.1
303.15 K, m1 = 0.1119	997.84	68.8
303.15 K, m1 = 0.1673	998.61	67.6
303.15 K, m1 = 0.2244	999.46	66.3
303.15 K, m1 = 0.2808	1000.3	65.1
303.15 K, m1 = 0.3352	1001.12	64
303.15 K, m1 = 0.3925	1001.97	62.9
303.15 K, m1 = 0.448	1002.83	61.8
303.15 K, m1 = 0.5037	1003.47	60.9
308.15 K, m1 = 0.0113	994.86	70.2
308.15 K, m1 = 0.0172	994.92	70
308.15 K, m1 = 0.0279	995.09	69.7
308.15 K, m1 = 0.0446	995.28	69.3
308.15 K, m1 = 0.1119	996.14	68.1
308.15 K, m1 = 0.1673	996.89	66.8
308.15 K, m1 = 0.2244	997.74	65.4
308.15 K, m1 = 0.2808	998.56	64.4
308.15 K, m1 = 0.3352	999.31	63.3
308.15 K, m1 = 0.3925	1000.19	62.2
308.15 K, m1 = 0.448	1000.95	61.2
308.15 K, m1 = 0.5037	1001.66	60.2
313.15 K, m1 = 0.0113	992.97	69.3
313.15 K, m1 = 0.0172	993.03	69.1
313.15 K, m1 = 0.0279	993.19	68.8
313.15 K, m1 = 0.0446	993.36	68.5
313.15 K, m1 = 0.1119	994.21	67.1
313.15 K, m1 = 0.1673	994.99	65.9
313.15 K, m1 = 0.2244	995.82	64.7
313.15 K, m1 = 0.2808	996.66	63.6
313.15 K, m1 = 0.3352	997.38	62.4
313.15 K, m1 = 0.3925	998.21	61.4
313.15 K, m1 = 0.448	998.97	60.4
313.15 K, m1 = 0.5037	999.65	59.5
318.15 K, m1 = 0.0113	990.93	68.5
318.15 K, m1 = 0.0172	991.01	68.4
318.15 K, m1 = 0.0279	991.15	68
318.15 K, m1 = 0.0446	991.33	67.7
318.15 K, m1 = 0.1119	992.2	66.4
318.15 K, m1 = 0.1673	992.92	65.2
318.15 K, m1 = 0.2244	993.77	64.1
318.15 K, m1 = 0.2808	994.56	63
318.15 K, m1 = 0.3352	995.34	61.9
318.15 K, m1 = 0.3925	996.12	60.9
318.15 K, m1 = 0.448	996.87	59.8
318.15 K, m1 = 0.5037	997.59	58.9

O [water] + CC(=O)[O-].CCCCC[n+]1ccn(C)c1
m2 = 0
Conditions	mass density [kg/m3]	surface tension liquid-gas [mN/m]
288.15 K	–	73.5
293.15 K	–	72.8
298.15 K	–	72
303.15 K	–	71.2
308.15 K	994.06	70.4
313.15 K	–	69.6
318.15 K	–	68.7
